{"source": "patent US8686126B2", "about": "“HBV drug resistance methods” (priority 2002, dated 2014)", "test_system": "HBsAg", "assay": "Serum levels of HBsAg by modified Laurell electrophoresis in HBV-infected patient No. 7", "type": "in vivo", "settings": "lamivudine treatment, just after breakthrough virus emerged", "method": "HBsAg, anti-HBs, HBeAg, anti-HBe, and anti-HCV were determined by the microparticle enzyme-immunoassay ([…]) method (Abbott Laboratories, North Chicago, Ill., US). Anti-HDV enzyme-immunoassay method was performed as per the methodology supplied by the manufacturer (Abbott Laboratories, North Chicago, Ill., US). Serum levels of HBsAg were determined by a modified Laurell electrophoresis system (Gerlich et al., 1975). HBV-DNA levels were tested by using a commercial liquid-hybridization assay (Digene, Maryland, US), with the lower limit of detection of this assay 5 pg/mL of viral DNA.\nThe HBsAg level of the patient was 1.19 μg/mL at the beginning of the lamivudine treatment and became undetectable after 4 months.", "data": [{"compound": "Nc1ccn([C@@H]2CS[C@H](CO)O2)c(=O)n1", "note": "[lamivudine, beta-L-(−)-2′,3′-dideoxy-3′-thiacytidine]", "values": [{"measurement": "HBsAg level", "result": 10.8, "unit": "µg/mL"}]}]}
